Patent US10590082B2, “N-(5-((aryl or heteroaryl)methyloxy)pentyl)-substituted iminosugars as inhibitors of glucosylceramide synthase” (Academisch Medisch Centrum, priority 2014, dated 2020)
Read-outs that look alike come from different tables or passages of the source.

What was measured:
[1] = target: T1, glucosylceramide synthase (GCS) (Mus musculus, UniProt O88693); assay: GCS activity in living macrophage  cells (C6-NBD lipid, TLC readout); assay type: cell-based
T1 construct: IC50 values for GCS activity were measured using living cells; endogenous in cells
T1 sequence (O88693 1-394): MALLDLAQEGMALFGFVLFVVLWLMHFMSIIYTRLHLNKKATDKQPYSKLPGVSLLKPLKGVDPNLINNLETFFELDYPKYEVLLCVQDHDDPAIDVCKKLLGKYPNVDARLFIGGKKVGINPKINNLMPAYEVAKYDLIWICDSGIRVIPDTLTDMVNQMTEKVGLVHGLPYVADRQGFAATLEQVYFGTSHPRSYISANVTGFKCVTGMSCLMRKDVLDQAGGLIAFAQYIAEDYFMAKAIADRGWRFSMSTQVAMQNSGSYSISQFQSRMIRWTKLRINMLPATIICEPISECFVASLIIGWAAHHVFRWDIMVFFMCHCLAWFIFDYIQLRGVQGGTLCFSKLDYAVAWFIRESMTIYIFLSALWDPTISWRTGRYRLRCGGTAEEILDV

[2] = target: T2, GBA1 (Homo sapiens, UniProt P04062, R534H); assay: GBA1 activity, recombinant human enzyme (Cerezyme), 4-MU-β-glucoside substrate; assay type: biochemical;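 also: enzyme activity read out as fluorescence of the 4-MU released from the substrate, measured on a fluorimeter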
T2 construct: purchased Sanofi (Cerezyme)
T2 sequence (P04062 40-536 R534H): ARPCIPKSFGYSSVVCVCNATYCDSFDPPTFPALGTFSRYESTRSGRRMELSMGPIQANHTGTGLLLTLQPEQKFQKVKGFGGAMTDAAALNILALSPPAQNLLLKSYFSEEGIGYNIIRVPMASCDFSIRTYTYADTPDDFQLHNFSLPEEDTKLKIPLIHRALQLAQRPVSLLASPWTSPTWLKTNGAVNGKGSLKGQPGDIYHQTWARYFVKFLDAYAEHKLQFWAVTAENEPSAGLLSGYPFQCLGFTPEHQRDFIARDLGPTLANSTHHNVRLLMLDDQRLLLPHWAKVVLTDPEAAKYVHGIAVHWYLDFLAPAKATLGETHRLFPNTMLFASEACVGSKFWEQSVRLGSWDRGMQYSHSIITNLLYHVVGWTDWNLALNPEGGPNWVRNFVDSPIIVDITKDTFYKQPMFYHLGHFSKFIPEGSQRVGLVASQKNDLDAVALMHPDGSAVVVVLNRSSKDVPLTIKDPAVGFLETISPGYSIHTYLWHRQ

[3] = target: T3, GBA2 (Homo sapiens, UniProt Q9HCG7); assay: GBA2 activity, membrane fraction from Gaucher spleen, 4-MU-β-glucoside substrate; assay type: biochemical;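 also: Read-out is fluorimetric quantification of released 4-MU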
T3 construct: measured using a membrane fraction obtained from Gaucher spleen; from tissue; host or cells: membrane fraction of Gaucher spleen, pre-treated with conduritol B-epoxide
T3 sequence (Q9HCG7 1-927): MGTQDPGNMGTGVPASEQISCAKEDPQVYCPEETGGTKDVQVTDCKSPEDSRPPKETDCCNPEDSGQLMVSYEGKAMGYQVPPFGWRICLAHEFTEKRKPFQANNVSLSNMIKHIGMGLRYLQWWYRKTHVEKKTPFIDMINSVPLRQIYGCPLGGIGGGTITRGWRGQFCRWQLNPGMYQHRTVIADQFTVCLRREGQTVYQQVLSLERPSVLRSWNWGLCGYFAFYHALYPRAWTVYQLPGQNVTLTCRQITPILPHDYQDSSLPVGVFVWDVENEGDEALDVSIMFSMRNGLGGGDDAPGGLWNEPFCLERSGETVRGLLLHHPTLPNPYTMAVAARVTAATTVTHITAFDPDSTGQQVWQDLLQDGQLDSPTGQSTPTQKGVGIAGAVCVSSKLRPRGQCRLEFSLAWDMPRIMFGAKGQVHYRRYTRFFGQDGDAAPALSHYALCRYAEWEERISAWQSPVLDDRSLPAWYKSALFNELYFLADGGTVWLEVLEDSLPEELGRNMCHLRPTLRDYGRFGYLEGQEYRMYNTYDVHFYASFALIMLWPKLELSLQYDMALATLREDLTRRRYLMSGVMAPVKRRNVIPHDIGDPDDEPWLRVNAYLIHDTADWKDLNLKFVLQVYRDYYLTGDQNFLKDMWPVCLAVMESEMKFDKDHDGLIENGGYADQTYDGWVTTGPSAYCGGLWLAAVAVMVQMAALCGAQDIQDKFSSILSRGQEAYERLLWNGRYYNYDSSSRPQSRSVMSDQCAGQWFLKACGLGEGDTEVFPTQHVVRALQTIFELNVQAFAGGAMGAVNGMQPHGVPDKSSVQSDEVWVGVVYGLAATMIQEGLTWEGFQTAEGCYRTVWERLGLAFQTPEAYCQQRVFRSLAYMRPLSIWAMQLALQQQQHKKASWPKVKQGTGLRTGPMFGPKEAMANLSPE

[4] = D-gluco configuration series, Example 3, read-out: GCS [nM] (IC50)
[5] = D-gluco configuration series, Example 3
[6] = L-ido configuration series, Example 4, read-out: GCS [nM] (IC50)
[7] = L-ido configuration series, Example 4

IC50 [1, 4] [nM] | IC50 ([1]; read-out: inhibitory potency towards GCS, expressed as IC50) [nM] | IC50 [2] [nM] | IC50 ([1]; read-out: GCS [nM] (IC50)) | IC50 [3, 5] [nM] | IC50 [3] [nM] | IC50 [1, 6] [nM] | IC50 [3, 7] [nM] | Structure (SMILES)
50 | 100 | 10000 | – | – | – | – | – | C[C@H](OCCCCCN1C[C@H](O)[C@@H](O)[C@H](O)[C@H]1CO)c1ccc(-c2ccccc2)cc1 [Compound 4]
40 | – | 10000 | – | – | – | – | – | C[C@@H](OCCCCCN1C[C@H](O)[C@@H](O)[C@H](O)[C@H]1CO)c1ccc(-c2ccccc2)cc1 [Compound 5]
– | – | 250 | 25 | – | – | – | – | OC[C@@H]1[C@@H](O)[C@H](O)[C@@H](O)CN1CCCCCOCc1ccc(-c2ccccc2)cc1F [Compound 6]
– | – | 200 | 25 | – | – | – | – | OC[C@@H]1[C@@H](O)[C@H](O)[C@@H](O)CN1CCCCCOCc1ccc(-c2ccccc2)c(F)c1 [Compound 7]
– | – | 200 | 25 | 0.12 | – | – | – | OC[C@@H]1[C@@H](O)[C@H](O)[C@@H](O)CN1CCCCCOCc1ccc(-c2ccccc2)cc1C(F)(F)F [Compound 8]
– | – | 100 | 25 | – | – | – | – | OC[C@@H]1[C@@H](O)[C@H](O)[C@@H](O)CN1CCCCCOCc1ccc(-c2ccccc2)c(C(F)(F)F)c1 [Compound 9]
– | – | 12500 | 15 | – | 2 | – | – | OC[C@@H]1[C@@H](O)[C@H](O)[C@@H](O)CN1CCCC(F)(F)COCc1ccc(-c2ccccc2)cc1 [Compound 10]
– | – | 500 | 200 | – | 2 | – | – | OC[C@@H]1[C@@H](O)[C@H](O)[C@@H](O)CN1CC(F)(F)CCCOCc1ccc(-c2ccccc2)cc1 [Compound 11]
– | – | 1500 | 200 | 3 | – | – | – | OC[C@@H]1[C@@H](O)[C@H](O)[C@@H](O)CN1CCCCCOCc1ccc(-c2ccccc2)cn1 [Compound 12]
– | – | 300 | 75 | 2 | – | – | – | OC[C@@H]1[C@@H](O)[C@H](O)[C@@H](O)CN1CCCCCOCc1cccc(-c2ccccc2)c1 [Compound 13]
– | – | 1250 | 50 | 3 | – | – | – | OC[C@@H]1[C@@H](O)[C@H](O)[C@@H](O)CN1CCCCCOCc1ccccc1-c1ccccc1 [Compound 14]
– | – | 3000 | 750 | 5 | – | – | – | OC[C@@H]1[C@@H](O)[C@H](O)[C@@H](O)CN1CCCCCOCc1ccc(-c2ccc(F)nc2)cc1 [Compound 15]
– | – | 2000 | 150 | 4 | – | – | – | OC[C@@H]1[C@@H](O)[C@H](O)[C@@H](O)CN1CCCCCOCc1ccc(-c2ccnc(F)c2)cc1 [Compound 16]
– | – | 3000 | 200 | 10 | – | – | – | OC[C@@H]1[C@@H](O)[C@H](O)[C@@H](O)CN1CCCCCOCc1ccc(-c2cccnc2)cc1 [Compound 17]
2000 | – | 2000 | – | 10 | – | – | – | OC[C@@H]1[C@@H](O)[C@H](O)[C@@H](O)CN1CCCCCOCc1ccc(-c2ccncc2)cc1 [Compound 18]
– | – | 3000 | 25 | – | 10 | – | – | OC[C@@H]1[C@@H](O)[C@H](O)[C@@H](O)CN1CCCCCOCc1ccc(-c2ccc3c(c2)OCCCO3)cc1 [Compound 19]
– | – | 3000 | 25 | – | 10 | – | – | OC[C@@H]1[C@@H](O)[C@H](O)[C@@H](O)CN1CCCCCOCc1ccc(-c2ccc3c(c2)OCCO3)cc1 [Compound 20]
– | – | 2500 | 25 | – | 10 | – | – | OC[C@@H]1[C@@H](O)[C@H](O)[C@@H](O)CN1CCCCCOCc1ccc(-c2ccc3c(c2)OCO3)cc1 [Compound 21]

IC50 [1, 4] [nM] | IC50 ([1]; read-out: inhibitory potency towards GCS, expressed as IC50) [nM] | IC50 [2] [nM] | IC50 ([1]; read-out: GCS [nM] (IC50)) | IC50 [3, 5] [nM] | IC50 [3] [nM] | IC50 [1, 6] [nM] | IC50 [3, 7] [nM] | Structure (SMILES)
– | – | 800 | 20 | 15 | – | – | – | OC[C@@H]1[C@@H](O)[C@H](O)[C@@H](O)CN1CCCCCOCc1ccc(-c2cc(C(F)(F)F)cc(C(F)(F)F)c2)cc1 [Compound 22]
– | – | 800 | 20 | 10 | – | – | – | OC[C@@H]1[C@@H](O)[C@H](O)[C@@H](O)CN1CCCCCOCc1ccc(-c2ccc(C(F)(F)F)cc2)cc1 [Compound 23]
– | – | 500 | 25 | 2 | – | – | – | OC[C@@H]1[C@@H](O)[C@H](O)[C@@H](O)CN1CCCCCOCc1ccc(-c2ccc(Cl)cc2)cc1 [Compound 24]
– | – | 600 | 74 | 2 | – | – | – | OC[C@@H]1[C@@H](O)[C@H](O)[C@@H](O)CN1CCCCCOCc1ccc(-c2ccccc2F)cc1 [Compound 25]
– | – | 250 | 25 | – | 2 | – | – | OC[C@@H]1[C@@H](O)[C@H](O)[C@@H](O)CN1CCCCCOCc1ccc(-c2cccc(F)c2)cc1 [Compound 26]
– | – | 400 | 25 | 1 | – | – | – | OC[C@@H]1[C@@H](O)[C@H](O)[C@@H](O)CN1CCCCCOCc1ccc(-c2ccc(F)cc2)cc1 [Compound 27]
– | – | 600 | 150 | 5 | – | – | – | N#Cc1ccccc1-c1ccc(COCCCCCN2C[C@H](O)[C@@H](O)[C@H](O)[C@H]2CO)cc1 [Compound 28]
50 | – | 700 | – | 2 | – | – | – | N#Cc1cccc(-c2ccc(COCCCCCN3C[C@H](O)[C@@H](O)[C@H](O)[C@H]3CO)cc2)c1 [Compound 29]
– | – | 350 | 150 | 3 | – | – | – | N#Cc1ccc(-c2ccc(COCCCCCN3C[C@H](O)[C@@H](O)[C@H](O)[C@H]3CO)cc2)cc1 [Compound 30]
– | – | 600 | 50 | – | 0.7 | – | – | COc1ccccc1-c1ccc(COCCCCCN2C[C@H](O)[C@@H](O)[C@H](O)[C@H]2CO)cc1 [Compound 31]
– | – | 2500 | 150 | 20 | – | – | – | COc1cccc(-c2ccc(COCCCCCN3C[C@H](O)[C@@H](O)[C@H](O)[C@H]3CO)cc2)c1 [Compound 32]
– | – | 2500 | 25 | 10 | – | – | – | COc1ccc(-c2ccc(COCCCCCN3C[C@H](O)[C@@H](O)[C@H](O)[C@H]3CO)cc2)cc1 [Compound 33]
25 | – | 70 | – | 0.5 | – | – | – | Cc1ccccc1-c1ccc(COCCCCCN2C[C@H](O)[C@@H](O)[C@H](O)[C@H]2CO)cc1 [Compound 34]
– | – | 250 | 100 | 2 | – | – | – | Cc1cccc(-c2ccc(COCCCCCN3C[C@H](O)[C@@H](O)[C@H](O)[C@H]3CO)cc2)c1 [Compound 35]
– | – | 250 | 100 | 3 | – | – | – | Cc1ccc(-c2ccc(COCCCCCN3C[C@H](O)[C@@H](O)[C@H](O)[C@H]3CO)cc2)cc1 [Compound 36]
– | – | 10000 | – | – | – | 30 | 2 | C[C@H](OCCCCCN1C[C@H](O)[C@@H](O)[C@H](O)[C@@H]1CO)c1ccc(-c2ccccc2)cc1 [Compound 38]
– | – | 10000 | – | – | – | 40 | 1 | C[C@@H](OCCCCCN1C[C@H](O)[C@@H](O)[C@H](O)[C@@H]1CO)c1ccc(-c2ccccc2)cc1 [Compound 39]
– | – | 500000 | – | – | – | – | 2 | OC[C@H]1[C@@H](O)[C@H](O)[C@@H](O)CN1CC(F)(F)CCCOCc1ccc(-c2ccccc2)cc1 [Compound 42]
